Assay [1] deals with influenza A virus (A/PR/8/34). Nature of the assay: microbe, parasite or virus in culture. In kind it is cell-based.
Assay [2] deals with A/PR/8/34 influenza virus. Nature of the assay: microbe, parasite or virus in culture. In kind it is cell-based.
[3] abbreviates: Influenza A virus, PR/8, MDCK, MDCK cells infected with A/PR/8/34, cell protection (CPE), read-out: IC50 (mean all).
[4] abbreviates: Influenza A virus, PR/8, MDCK, MDCK cells infected with A/PR/8/34, bDNA viral RNA, read-out: EC50 (mean all).
Setting [5] is: Influenza A virus, PR/8, MDCK, MDCK cells infected with A/PR/8/34, survival of infected cells, class symbols, read-out: IC50 (mean all).
Where [6] appears, read: Influenza A virus, PR/8, MDCK, MDCK cells infected with A/PR/8/34, replication of influenza virus (viral RNA, bDNA), class symbols, read-out: EC50 (mean all).
Where [7] appears, read: Influenza A virus, PR/8, MDCK, CPE assay, A/PR/8/34 infected MDCK cells, class symbols, read-out: IC50 (mean all).
[8] abbreviates: Influenza A virus, PR/8, MDCK, bDNA assay, A/PR/8/34 influenza virus replication in MDCK cells, class symbols, read-out: EC50 (mean all).
[9] abbreviates: mean all, MDCK cells infected with A/PR/8/34, cell protection (CPE), read-out: IC50.
Setting [10] is: mean all, bDNA viral RNA in MDCK cells infected with A/PR/8/34, read-out: EC50.
The mark [11] stands for this setting: Influenza A virus, PR/8, MDCK, mean all, A/PR/8/34 infected MDCK cells, CPE assay, read-out: IC50.
The mark [12] stands for this setting: Influenza A virus, PR/8, MDCK, mean all, A/PR/8/34 influenza virus in MDCK cells, bDNA assay, read-out: EC50.
Setting [13] is: Influenza A virus, PR/8, MDCK, read-out: IC50 (mean all).
Where [14] appears, read: Influenza A virus, PR/8, MDCK, read-out: EC50 (mean all).

Where a name gives a salt, the structure may show the parent alone. Read-outs that look alike come from different tables or passages of the source.

With `Cc1cccc(C(=O)N2CCC[C@H](CNc3nc(-c4c[nH]c5ncc(Cl)cc45)ncc3F)C2)c1C` [Compound 157, (R)-(3-((2-(5-chloro-1H-pyrrolo[2,3-b]pyridin-3-yl)-5-fluoropyrimidin-4-ylamino)methyl)piperidin-1-yl)(2,3-dimethylphenyl)methanone], in assay [1] (setting [3]), the IC50 was < 5 µM. For the same compound, the EC50 in assay [2] (setting [4]) is < 5 µM. For `NC(=O)N1CCOCC1CNc1nc(-c2c[nH]c3ncc(Cl)cc23)ncc1F` (centres unmarked) [Compound 534, 3-((2-(5-chloro-1H-pyrrolo[2,3-b]pyridin-3-yl)-5-fluoropyrimidin-4-ylamino)methyl)morpholine-4-carboxamide], the IC50 in assay [1] (setting [5]) was in the range of 5 to 20 µM. For the same compound, in assay [2] (setting [6]), the EC50 is < 5 µM.

Take `N[C@@H]1CCCC[C@H]1CNc1nc(-c2c[nH]c3ncc(Cl)cc23)ncc1F` (racemic) [Compound 555, N-((trans-2-aminocyclohexyl)methyl)-2-(5-chloro-1H-pyrrolo[2,3-b]pyridin-3-yl)-5-fluoropyrimidin-4-amine]: the IC50 in assay [1] (setting [5]) was > 10 µM. In addition, the EC50 in assay [2] (setting [6]) was < 5 µM. Consider `CN(C)C(=O)[C@@H]1CCCC[C@@H]1Nc1nc(-c2c[nH]c3ncc(Cl)cc23)ncc1F` (relative stereo) [Compound 543, Cis-2-(2-(5-chloro-1H-pyrrolo[2,3-b]pyridin-3-yl)-5-fluoropyrimidin-4-ylamino)-N,N-dimethylcyclohexanecarboxamide], for which, in assay [1] (setting [5]), the IC50 was < 5 µM. In addition, the EC50 in assay [2] (setting [6]) was < 5 µM. Turning to `O=C(N[C@@H]1CCC[C@H](Nc2nc(-c3c[nH]c4ncc(Cl)cc34)ncc2F)C1)C1CCOC1` (stereo partly drawn) [Compound 652, N-[(1R,3S)-3-[[2-(5-chloro-1H-pyrrolo[2,3-b]pyridin-3-yl)-5-fluoro-pyrimidin-4-yl]amino]cyclohexyl]tetrahydrofuran-3-carboxamide hydrochloride], the IC50 in assay [1] (setting [7]) is < 5 µM. The EC50 in assay [2] (setting [8]) was < 5 µM. With `COC(=O)NC1CCCC(Nc2nc(-c3c[nH]c4ncc(Cl)cc34)ncc2F)C1` (centres unmarked) [Compound 453], the IC50 in assay [1] (mean all, A/PR/8/34 infected MDCK cells, CPE assay, read-out: IC50) was < 5 µM. The EC50 in assay [2] (mean all, A/PR/8/34 influenza virus in MDCK cells, bDNA assay, read-out: EC50) is < 5 µM. Consider `CCOC(=O)NC(=O)N1CCC[C@@H](CNc2nc(-c3c[nH]c4ncc(Cl)cc34)ncc2F)C1` [Compound 26, (S)-ethyl 3-((2-(5-chloro-1H-pyrrolo[2,3-b]pyridin-3-yl)-5-fluoropyrimidin-4-ylamino)methyl)piperidine-1-carbonylcarbamate], for which the 50% inhibitory concentration (IC50) in assay [1] (setting [3]) was < 5 µM. In addition, in assay [2] (setting [4]), the EC50 was < 5 µM.

On to `COC(=O)NC1CCCC(Nc2nc(-c3c[nH]c4ncc(F)cc34)ncc2F)C1` (centres unmarked) [Compound 705], for which the half-maximal inhibitory concentration (IC50) in assay [1] (setting [9]) is < 5 µM. Further, in assay [2] (setting [10]), the EC50 was < 5 µM. Turning to `O=C1NCCC[C@@H]1Nc1nc(-c2c[nH]c3ncc(Cl)cc23)ncc1F` [Compound 416], the IC50 in assay [1] (setting [11]) was < 5 µM. Moreover, in assay [2] (setting [12]), the EC50 is < 5 µM. `O=C(CC(F)(F)F)N1CCC[C@@H](CNc2nc(-c3c[nH]c4ncc(Cl)cc34)ncc2F)C1` [Compound 44, (S)-1-(3-((2-(5-chloro-1H-pyrrolo[2,3-b]pyridin-3-yl)-5-fluoropyrimidin-4-ylamino)methyl)piperidin-1-yl)-3,3,3-trifluoropropan-1-one]: in assay [1] (setting [3]), the half-inhibitory concentration (IC50) was < 5 µM. In addition, the EC50 in assay [2] (setting [4]) is < 5 µM. With `Cc1ccc(S(=O)(=O)n2cc(-c3ncc(F)c(N[C@H]4CCCC(C)(O)C4)n3)c3cc(Cl)cnc32)cc1` (some centres unmarked) [Compound 655], the concentration for half-maximal inhibition (IC50) in assay [1] (CPE assay, A/PR/8/34 infected MDCK cells, class symbols, read-out: IC50 (mean all)) is < 5 µM. Besides, the EC50 in assay [2] (bDNA assay, A/PR/8/34 influenza virus replication in MDCK cells, class symbols, read-out: EC50 (mean all)) is < 5 µM. Consider `CC(C)OC(=O)NC1CCCC(Nc2nc(-c3c[nH]c4ncc(Cl)cc34)ncc2F)C1` (centres unmarked) [Compound 697], for which the half-inhibitory concentration (IC50) in assay [1] (setting [9]) was < 5 µM. Also, the EC50 in assay [2] (setting [10]) was < 5 µM. Consider `OCC(O)C[C@@]1(O)CCCC(Nc2nc(-c3c[nH]c4ncc(Cl)cc34)ncc2F)C1` (some centres unmarked) [Compound 718], for which the IC50 in assay [1] (Influenza A virus, PR/8, MDCK, mean all, MDCK cells infected with A/PR/8/34, cell protection (CPE), read-out: IC50) was < 5 µM. Besides, the EC50 in assay [2] (Influenza A virus, PR/8, MDCK, mean all, bDNA viral RNA in MDCK cells infected with A/PR/8/34, read-out: EC50) is < 5 µM.

On to `O=C(Cc1ccccc1)N1CCC[C@H](CNc2nc(-c3c[nH]c4ncc(Cl)cc34)ncc2F)C1` [Compound 56, (R)-1-(3-((2-(5-chloro-1H-pyrrolo[2,3-b]pyridin-3-yl)-5-fluoropyrimidin-4-ylamino)methyl)piperidin-1-yl)-2-phenylethanone], for which the IC50 in assay [1] (setting [3]) is < 5 µM. The EC50 in assay [2] (setting [4]) is < 5 µM.

For `COC(=O)N1CCCC[C@H]1CNc1nc(-c2c[nH]c3ncc(Cl)cc23)ncc1F` [Compound 166, (S)-methyl 2-((2-(5-chloro-1H-pyrrolo[2,3-b]pyridin-3-yl)-5-fluoropyrimidin-4-ylamino)methyl)piperidine-1-carboxylate], the IC50 in assay [1] (setting [3]) lay in the range of 5 to 20 µM. Further, the EC50 in assay [2] (setting [4]) was < 5 µM. Regarding `O=C(CCl)N1CCC[C@H](CNc2nc(-c3c[nH]c4ncc(Cl)cc34)ncc2F)C1` [Compound 92, (R)-2-chloro-1-(3-((2-(5-chloro-1H-pyrrolo[2,3-b]pyridin-3-yl)-5-fluoropyrimidin-4-ylamino)methyl)piperidin-1-yl)ethanone], the IC50 in assay [1] (setting [3]) is < 5 µM. Besides, the EC50 in assay [2] (setting [4]) was < 5 µM. `CCC(=O)N1CCC[C@@H](CNc2nc(-c3c[nH]c4ncc(Cl)cc34)ncc2F)C1` [Compound 32, (S)-1-(3-((2-(5-chloro-1H-pyrrolo[2,3-b]pyridin-3-yl)-5-fluoropyrimidin-4-ylamino)methyl)piperidin-1-yl)propan-1-one]: the IC50 in assay [1] (setting [3]) was < 5 µM. Also, in assay [2] (setting [4]), the EC50 was < 5 µM.

In the case of `CCS(=O)(=O)N1CCC[C@@H](Nc2nc(-c3c[nH]c4ncc(Cl)cc34)ncc2F)C1` [Compound 321, (R)-2-(5-chloro-1H-pyrrolo[2,3-b]pyridin-3-yl)-N-(1-(ethylsulfonyl)piperidin-3-yl)-5-fluoropyrimidin-4-amine], the IC50 in assay [1] (setting [11]) was in the range of 5 to 20 µM. In assay [2] (setting [12]), the EC50 was < 5 µM. For the compound `CCNC(=O)OC1CCCC(Nc2nc(-c3c[nH]c4ncc(Cl)cc34)ncc2F)C1` (centres unmarked) [Compound 608, 3-((2-(5-chloro-1H-pyrrolo[2,3-b]pyridin-3-yl)-5-fluoropyrimidin-4-ylamino)cyclohexyl ethylcarbamate], the 50% inhibitory concentration (IC50) in assay [1] (setting [13]) was < 5 µM. Moreover, the EC50 in assay [2] (setting [14]) is < 5 µM. Turning to `C=C(C)OC(=O)N1CCC[C@H](CNc2nc(-c3c[nH]c4ncc(Cl)cc34)ncc2F)C1` [Compound 74, (R)-prop-1-en-2-yl 3-((2-(5-chloro-1H-pyrrolo[2,3-b]pyridin-3-yl)-5-fluoropyrimidin-4-ylamino)methyl)piperidine-1-carboxylate], the IC50 in assay [1] (setting [13]) was < 5 µM. In addition, in assay [2] (setting [14]), the EC50 was < 5 µM. For `COC(=O)c1cnc2[nH]cc(-c3ncc(F)c(NC4CCCN(CC(N)=O)C4)n3)c2c1` (centres unmarked) [Compound 675], the half-maximal inhibitory concentration (IC50) in assay [1] (setting [9]) is > 10 µM. For the same compound, the EC50 in assay [2] (setting [10]) is > 3.3 µM.

With `O[C@H]1[C@@H](Nc2nc(-c3c[nH]c4ncc(Cl)cc34)ncc2F)CCC[C@@H]1O` [Compound 615], the IC50 in assay [1] (setting [7]) is < 5 µM. In addition, the EC50 in assay [2] (setting [8]) is < 5 µM. For `C[C@H]1C[C@@H](NC(=O)N2CC[C@H](F)C2)C[C@@H](Nc2nc(-c3c[nH]c4ncc(F)cc34)ncc2F)C1` [compound 1067], the concentration for half-maximal inhibition (IC50) in assay [1] (Influenza A virus, PR/8, MDCK, MDCK cells, A/PR/8/34, ATP readout, mean all, read-out: Cell Flu, MDCK protection, ATP (All: IC50: uM)(Mean (All))) was < 5 µM. Besides, the EC50 in assay [2] (Influenza A virus, PR/8, 30 h, HA(−) 30 hr, A/PR/8, bDNA, mean all, read-out: Cell Influenza HA(−) 30 hr A/PR/8 bDNA:bDNA EC50 uM(Mean (All))) was < 5 µM.

In the case of `COCCC(=O)N1CCC[C@H](CNc2ccnc(-c3c[nH]c4ncc(Cl)cc34)n2)C1` [Compound 493, (R)-1-(3-((2-(5-chloro-1H-pyrrolo[2,3-b]pyridin-3-yl)pyrimidin-4-ylamino)methyl)piperidin-1-yl)-3-methoxypropan-1-one], in assay [1] (setting [5]), the IC50 was < 5 µM. Besides, the EC50 in assay [2] (setting [6]) is < 5 µM. For `NC(=O)[C@@H]1CCCC[C@@H]1Nc1nc(-c2c[nH]c3ncc(Cl)cc23)ncc1F` (relative stereo) [Compound 544, cis-2-(2-(5-chloro-1H-pyrrolo[2,3-b]pyridin-3-yl)-5-fluoropyrimidin-4-ylamino)cyclohexanecarboxamide], the IC50 in assay [1] (setting [5]) is > 20 µM. In addition, the EC50 in assay [2] (setting [6]) is < 5 µM. In the case of `Cc1cc(NC(=O)N2CCC[C@H](CNc3nc(-c4c[nH]c5ncc(Cl)cc45)ncc3F)C2)c(C(F)(F)F)o1` [Compound 120, (R)-3-((2-(5-chloro-1H-pyrrolo[2,3-b]pyridin-3-yl)-5-fluoropyrimidin-4-ylamino)methyl)-N-(5-methyl-2-(trifluoromethyl)furan-3-yl)piperidine-1-carboxamide], the 50% inhibitory concentration (IC50) in assay [1] (setting [3]) was < 5 µM. Further, the EC50 in assay [2] (setting [4]) is < 5 µM.

Turning to `CC(=O)N[C@@H]1CCC[C@H](Nc2nc(-c3c[nH]c4ncc(Cl)cc34)ncc2F)C1` [Compound 576, N-[(1R,3S)-3-[[2-(5-chloro-1H-pyrrolo[2,3-b]pyridin-3-yl)-5-fluoro-pyrimidin-4-yl]amino]cyclohexyl]acetamide], the EC50 in assay [2] (setting [6]) was < 5 µM.

By IC50 is commonly meant the concentration needed to halve the response being measured.

(Values after patent publication US8829007B2 (priority 2009, dated 2014).)
